Reference: patent publication US20260250337A1, “HYBRID ANTIMICROBIAL PEPTIDES” (UNIVERSIDADE FEDERAL DO ABC, priority 2023, published 2026)
No end group written: not given here.

Key:
S. marcescens ATCC 4112 = assay: Liquid growth inhibition assay, MIC; type: cell-based, Serratia marcescens; conditions: 37° C., 18 h
Protocol: (§1) Initially, the antimicrobial activity was determined by liquid growth inhibition assays, as previously described by Pedron et al.^62. Briefly, Peptone Broth and Potato Dextrose Broth (Invitrogen) were used for antibacterial and antifungal assays, respectively. Two-fold serial dilutions of peptides (0.09-50 μmol L^−1) and microorganisms (Serratia marcescens ATCC 4112, Enterobacter cloacae β-12, Micrococcus luteus A270, Bacillus megaterium ATCC 10778, Bacillus subtilis ATCC 6633, Candida albicans MDM8, and Candida tropicalis IOC 4560) were incubated at 37° C. for 18 h (for bacteria) or 24 h (for fungi), and microbial growth was assessed by absorbance measurements at 595 nm. Experiments were performed in three biological repeats.

E. cloacae β-12 = assay: Liquid growth inhibition assay, MIC; type: cell-based, Enterobacter cloacae; conditions: 37° C., 18 h
Protocol: as §1

C. tropicalis IOC 4560 = assay: Liquid growth inhibition assay, MIC (antifungal); type: cell-based, Candida tropicalis; conditions: 37° C., 24 h
Protocol: as §1

B. megaterium ATCC 10778 = assay: Liquid growth inhibition assay, MIC; type: cell-based, Bacillus megaterium; conditions: 37° C., 18 h
Protocol: as §1

A. baumannii ATCC19606 = assay: NPN uptake assay, outer membrane permeabilization; type: cell-based; conditions: peptides at their MIC
Protocol: Method. Membrane permeabilization was assessed for two of the naturally occurring peptides (VmCT1 and temporin A) and two of the hybrids [VmCT1-temporin A (VT) and temporin A-VmCT1 (TV)] at their MIC by using the N-phenyl-1-naphthylamine (NPN) uptake assay as previously described^104, 105. Briefly, A. baumannii ATCC19606 cells were grown to an optical density at 600 nm (OD600) of 0.4, centrifuged (10,000 rpm at 4° C. to 10 minutes), washed, and resuspended in buffer (5 mmol L^−1 HEPES, 5 mmol L^−1 glucose, pH 7.4). Four μL of NPN solution (0.5 mmol L^−1; working concentration of 10 μmol L^−1, after dilutions) was added to 100 μL of the bacterial solution in 96-well plates. The background fluorescence was then determined at λex=350 nm and […]. The peptides resuspended in water (100 μL at a concentration of 1.2 μmol L^−1) were added to each 96-well plate. The fluorescence was determined as a function of time until no further increase in fluorescence was observed (45 min).

M. luteus A270 = assay: Liquid growth inhibition assay, MIC; type: cell-based, Micrococcus luteus; conditions: 37° C., 18 h
Protocol: as §1

C. albicans MDM8 = assay: Liquid growth inhibition assay, MIC (antifungal); type: cell-based, Candida albicans; conditions: 37° C., 24 h
Protocol: as §1

P. aeruginosa PA14 = assay: Broth microdilution MIC, ESKAPE pathogens; type: cell-based; conditions: LB, 37° C., 24 h
Protocol: (§2) Method. The minimal inhibitory concentration (MIC) against the ESKAPE pathogens was determined using the broth microdilution method^81, 82 in Luria-Bertani (LB) medium. The MIC value was defined as the lowest concentration of peptide at which no microbial growth was observed. A. baumannii ATCC19606, E. coli ATCC11775, E. coli AIC221, E. coli AIC222, K. pneumoniae ATCC13883, S. aureus ATCC12600 P. aeruginosa PAO1, and P. aeruginosa PA14 were incubated on agar plates, and after 24 h, three isolated colonies were inoculated to 5 mL of Luria-Bertani (LB) broth and maintained at 37° C. overnight with shaking. Peptides were then added to 96-well polystyrene microtiter plates at concentrations ranging from 0 to 128 μmol L^−1, and 5×10^5 CFU mL^−1 of each bacterium was inoculated in each well. The plates were incubated at 37° C. for 24 h. Bacterial growth was measured using a microplate reader at 610 nm. Three independent replicates were performed.

E. coli AIC222 = assay: Broth microdilution MIC, ESKAPE pathogens; type: cell-based; conditions: LB, 37° C., 24 h
Protocol: as §2

[1] = test system: S. epidermidis ATCC 12228; assay: Liquid growth inhibition assay, MIC; type: cell-based; conditions: 37° C., 18 h
[2] = Circular dichroism, helical fraction (Lifson-Roig); type: physicochemical; conditions: peptide 50 μmol L^−1; for Helical fraction (fH) PBS: PBS 10 mmol L^−1, pH 7.4; for Helical fraction (fH) POPC: POPC 10 mmol L^−1; for Helical fraction (fH) POPC:DOPE: POPC:DOPE 3:1, mol:mol; for Helical fraction (fH) POPC:DOPE / Helical fraction (fH) POPC:POPG: 10 mmol L^−1; for Helical fraction (fH) POPC:POPG: POPC:POPG 3:1, mol:mol; for Helical fraction (fH) SDS: SDS 20 mmol L^−1 in water; for Helical fraction (fH) TFE/Water: TFE in water (3:2, v:v)
Protocol: Method. Circular dichroism (CD) assays were performed with a Spectropolarimeter Jasco Mod. J-815 (JascoCorp). CD spectra were obtained in Far-UV (195-260 nm), and analyzed in the following solutions: water, 2,2,2-trifluoroethanol (TFE) in water (3:2, v:v), phosphate buffer saline (PBS, 10 mmol L^−1, pH 7.4), sodium dodecyl sulfate (SDS 20 mmol L^−1) in water, palmitoyloleoylphosphatidylcholine (POPC; 10 mmol L^−1), palmitoyloleoylphosphatidylcholine:dioleylphosphatidylethanolamine (POPC:DOPE; 3:1, mol:mol, 10 mmol L^−1) and palmitoyloleoylphosphatidylcholine:palmitoyloleoylphosphatidylglycerol (POPC:POPG; 3:1, mol:mol, 10 mmol L^−1) at a peptide concentration of 50 μmol L^−1. These experiments were performed as described in detail by Pedron et al.^62.

human erythrocytes = assay: Hemolytic activity assay; type: cell-based; conditions: human erythrocytes, 1 h; for MHC: room temperature, concentration with approximately 0% of hemolytic activity
Protocol: Method. Assays against freshly collected human erythrocytes were performed following protocols described by Pedron et al. 62. Briefly, peptide aliquots at concentrations ranging from 0.1 to 100 μmol L−1 were incubated with a suspension of erythrocytes at room temperature for 1 h. The samples were then centrifuged, and the absorbance of the supernatant was measured at 405 nm. The MHC (maximal non-hemolytic concentration) was determined as the maximal concentration at which 100% of the erythrocytes were viable. The surfactant SDS and PBS buffer were used as positive88, 89 and negative controls, respectively. Sodium heparin was used as an anticoagulant when collecting human blood. Three biological repeats were performed.

[3] = test system: Plasmodium gallinaceum sporozoites; assay: Antiplasmodial activity, fluorescence microscopy; type: cell-based; conditions: for P. gallinaceum (% sporozoites at 0.8 μmol L^−1): fluorescent (propidium iodide stained) sporozoites, 37° C., 1 h; for antiplasmodial activity: P. gallinaceum sporozoites, concentration range tested
Protocol: Method. The activity of the peptides against Plasmodium gallinaceum sporozoites was determined by fluorescence microscopy, as previously described by Silva et. al.^83. Briefly, 9,000 sporozoites were isolated from the glands of infected Aedes aegypti mosquitos and incubated with serially diluted peptides (ranging from 0.1 to 1.6 μmol L^−1) at 37° C. for 1 h. A PBS solution and the surfactant digitonin^84, 85 were used as negative and positive controls, respectively. Propidium iodide was used to stain dead cells. Assays were executed using fluorescence microscopy. Three biological repeats each with three different mosquito batches (n=9) were used.

Substance | MIC S. marcescens ATCC 4112 (S. marcescens ATCC 4112) [µM] | MIC E. cloacae β-12 (E. cloacae β-12) [µM] | MIC C. tropicalis IOC 4560 (C. tropicalis IOC 4560) [µM] | MIC B. megaterium ATCC 10778 (B. megaterium ATCC 10778) [µM] | outer membrane permeabilization, NPN fluorescence (A. baumannii ATCC19606) | MIC M. luteus A270 (M. luteus A270) [µM] | MIC C. albicans MDM8 (C. albicans MDM8) [µM] | MIC P. aeruginosa PA14 (P. aeruginosa PA14) [µM] | MIC E. coli AIC222 (E. coli AIC222) [µM] | MIC S. epidermidis ATCC 12228 [1] [µM] | Helical fraction (fH) PBS [2] | Helical fraction (fH) POPC [2] | Helical fraction (fH) POPC:DOPE [2] | Helical fraction (fH) POPC:POPG [2] | Helical fraction (fH) SDS [2] | Helical fraction (fH) TFE/Water [2] | Helical fraction (fH) Water [2] | Hemolytic activity, concentration of peptide needed to kill 10% of red blood cells (human erythrocytes) [µmol/L] | MHC (human erythrocytes) [µmol/L] | P. gallinaceum (% sporozoites at 0.8 μmol L^−1) [3] [%] | further results
FLPLLWRVASGVF-NH2 [VT, Phe-Leu-Pro-Leu-Leu-Trp-Arg-Val-Ala-Ser-Gly-Val-Phe] | 12.5 | >50 | 25 | 6.3 | did not lead to increased fluorescence compared to the control | 3.1 | 12.5 | 128 | 32 | >50 | 0.18 | 0.45 | 0.42 | 1.00 | 0.82 | 1.00 | 0.21 | 0.2 | 0.2 | 2 | antiplasmodial activity [3]: did not exhibit significant antiplasmodial activity
ILGAILNVLKSLG-NH2 [PV, Ile-Leu-Gly-Ala-Ile-Leu-Asn-Val-Leu-Lys-Ser-Leu-Gly] | 12.5 | >50 | 6.3 | 12.5 | – | 3.1 | 12.5 | 128 | 16 | >50 | 0.08 | 0.44 | 0.28 | 0.63 | 0.60 | 0.68 | 0.13 | 25 | 25 | 41 | –
FLGAIGNVLKSIL-NH2 [TV, Phe-Leu-Gly-Ala-Ile-Gly-Asn-Val-Leu-Lys-Ser-Ile-Leu] | 6.3 | >50 | 3.1 | 6.3 | increased fluorescence compared to the control | 6.3 | 25 | 128 | 8 | >50 | 0.04 | 0.12 | 0.35 | 0.06 | 0.28 | 0.50 | 0.04 | 0.2 | 0.2 | 83 | antiplasmodial activity [3]: exhibited antiplasmodial activity
FLGALWNVAKSVF-NH2 [VmCT1, Phe-Leu-Gly-Ala-Len-Trp-Asu-Val-Ala-Lys-Ser-Val-Phe, reference compound] | 0.4 | >50 | 12.5 | 1.6 | increased fluorescence compared to the control | 0.8 | 12.5 | 128 | 16 | 3.1 | 0.03 | 0.42 | 0.55 | 0.25 | 0.17 | 0.30 | 0.05 | – | 6.3 | 93 | –
FLPLIGRVLSGIL-NH2 [Temporin A, Phe-Leu-Pro-Leu-Ile-Gly-Arg-Val-Leu-Ser-Gly-Ile-Leu, reference compound] | 12.5 | >50 | 12.5 | 6.3 | increased fluorescence compared to the control | 3.1 | 25 | 128 | 32 | >50 | 0.07 | 0.31 | 0.44 | 0.19 | 0.47 | 0.65 | 0.08 | 0.2 | 0.2 | 15 | antiplasmodial activity [3]: no activity
